Results on 3 compounds are retold here after patent US20040235759A1, “Use of azalide antibiotic compositions for treating or preventing a bacterial or protozoal infection in mammals” (Pfizer Inc, priority 2000, published 2004).

Data set [1] in a line: Equilibration of N-(n-propyl) isomer I and isomer II in heated aqueous acid solution, HPLC (Example 2, Table 1). The class given is physicochemical. Particulars: N-(n-propyl) isomer I prior to equilibration, for comparison. An excerpt:
The equilibrium ratio of N-(n-propyl) isomer I and N-(n-propyl) isomer II (about 90%±4% to about 10%±4%, respectively) was consistent for all experiments. […] Without being bound by any theory, lower equilibration temperatures or lower pH values generally result in substantially longer equilibration times. Equilibration time can also depend on, inter alia, the concentration of starting material, and the type and concentration of the acid used. N-(n-propyl) isomer I at a concentration of up to about 300 mg per mL of composition was heated to a temperature of about 40° C. to about 80° C. in the presence of one or more acids at a concentration of about 0.2 mmol to about 1.0 mmol per mL of mixture and with a sufficient quantity of hydrochloric acid to achieve a pH of about 6.5 to about 7.5 for up to about 20 hours to produce an equilibrium mixture of isomers that is about 95%-98% pure. Equilibration kinetic parameters and impurity levels for equilibration of N-(n-propyl) isomer I and N-(n-propyl) isomer II were determined as a function of pH, equilibration temperature, type of acid, and N-(n-propyl) isomer I concentration and are listed in Table 1. […]
Equilibrium mixtures of isomers were prepared and assayed as follows. […] Where 0.1 M citric or tartaric acid was used, hydrochloric acid was also added in a quantity sufficient to obtain the pH listed in column 2. […]

Data set [2] concerns Eimeria bovis, Eimeria aubumenis and Eimeria zuernii coccidia oocysts. Put plainly: Calves challenged with a coccidia challenge culture (Example 9). The class given is in vivo. An excerpt:
Sixty naive calves weighing approximately 110-125 kg were purchased from local dairies, weighed, identified by ear tag, and observed for general health assessments. Animals considered physically abnormal, undersized or moribund on arrival were excluded from the study. Calves were housed in five holding pens (12 animals/pen). Calves were held for 7 days prior to challenge in order to acclimate them to the facility. Prior to challenge, calves were excluded from the study at the discretion of the investigator. On days −6, −4 and −2 pre-challenge, fecal samples were obtained for semi-quantitative oocyst counts. On day −4 pre-challenge, oocysts, if present, were speciated.
On day 8 post-arrival (study day 0), calves were inoculated orally with the Eimeria culture. Beginning on day 1, temperatures were determined and recorded at approximately the same time each day for the duration of the study. Attitude, hydration and fecal consistency scores were evaluated daily. Post-challenge, fecal samples were collected on days 2, 4, 6, 8 and 10. Oocysts were speciated on day 10 post-challenge. On day 10 post-challenge, fifty animals were randomly allotted to one of five treatment groups using a randomized block allotment. Treatments were equally represented in each pen. Animals were injected subcutaneously with a single dose of one of the following solutions: (1) about 4 mL of sterile 0.9% sodium chloride (saline); (2) about 4 mL of 300 mg/mL MICOTIL at a dose of 10 mg/kg of body weight; (3) about 6 mL of the pharmaceutical composition at a dose of 5 mg/kg of body weight; (4) about 3 mL of the pharmaceutical composition at a dose of 2.5 mg/kg of body weight; or animals were drenched dosed orally with (5) about 2 oz. of amprolium in a 9.6% oral solution at a dose of 10 mg/kg of body weight. Only amprolium was re-administered on each of the following four days. All other treatments were given in a single dose injection. Fecal samples were examined semi-quantitatively post-treatment for shedding of coccidia oocysts on days 12, 14, 16 and 18. Beginning on day 19 and continuing through day 28, daily fecal samples were evaluated for semi-quantitative counts. Speciation of shed oocysts was performed on days 19-21, 23, 26 and 28. Calves that died during the course of the study or that were euthanized due to a moribund condition associated with clinical coccidiosis were counted as mortalities. Mortalities were necropsied and gross findings were recorded. At the termination of the study on day 28, all remaining animals were weighed, euthanized and examined post-mortem.
Assessment of drug efficacy was determined based upon analysis of mean daily clinical scores, temperature and oocyst shedding. Differences in clinical scores and temperature between different treatments were evaluated by repeated measures ANOVA. Differences in weight gain were determined by factorial ANOVA. Comparisons of mortality rates and oocyst shedding between treatments was performed using Chi-Square analysis and Fisher's Exact test.

In another data set the test system is Pasteurella multocida. Briefly: Therapeutic efficacy in swine infected with Pasteurella multocida (Example 5). The class given is in vivo. Particulars: pigs, P. multocida challenge, 1.25 mg/kg intramuscular. An excerpt:
By Apotency-actual@ number, as used herein, is meant the actual mg per mL of the substantially pure mixture or equilibrium mixture of N-(n-propyl) isomer I and N-(n-propyl) isomer II present in the pharmaceutical composition.
Fifty clinically normal and healthy pigs having a consistent body weight of approximately 10 kg were selected from a pool of 60 animals. Selected animals (10 per treatment) were randomly assigned to treatment and sorted into pens accordingly. On day 0, each animal was inoculated endotracheally with 25 mL of Pasteurella multocida challenge culture. […] Temperatures and illness scores were recorded 6 hours post-challenge and once daily beginning at 24 hours post-challenge. […] An estimate of the percentage of affected lung tissue was determined and recorded. […]
Assessment of efficacy was determined based upon comparison of mean daily illness scores, temperatures and lung-lesion scores. Differences between treatments for mean daily rectal temperatures and illness scores were evaluated by a repeated measures analysis of variance. Differences between mean lung-lesion scores for each treatment were evaluated using a factorial analysis of variance procedure. […]

Data set [3] relates to Actinobacillus pleuropneumoniae. Briefly: Pigs at a high risk for developing an Actinobacillus pleuropneumoniae infection, seeder-pig exposure (Example 8). The class given is in vivo. An excerpt:
One hundred and thirty clinically healthy pigs having an average body weight of approximately 10 kg were purchased, identified with an ear tag and acclimated to the study site 2 days before the study began. On day −1, all animals were weighed and 100 animals were selected for consistency of body weight (about 10 kg) and lack of signs of clinical abnormalities. Selected animals (20 per treatment) were randomly assigned to treatment and sorted into individual pens. A group of 25 additional animals were randomly assigned as seeder pigs (5 per treatment). […] Temperatures and illness scores were recorded daily. […] An estimate of the percentage of affected lung tissue was determined and recorded. […]
Assessment of efficacy was determined based upon comparison of mean daily illness scores, temperatures and lung-lesion scores. Differences between treatments for mean daily rectal temperatures and illness scores were evaluated by a repeated-measures analysis of variance. […]

Where [4] appears, read: amprolium, MICOTIL, or pharmaceutical composition at either dose level.

In the case of `CCCNC[C@]1(O)[C@H](C)O[C@@H](O[C@H]2[C@H](C)[C@@H](O[C@@H]3O[C@H](C)C[C@H](N(C)C)[C@H]3O)[C@](C)(O)C[C@@H](C)CN[C@H](C)[C@@H](O)[C@](C)(O)[C@@H](CC)OC(=O)[C@@H]2C)C[C@@]1(C)OC` [DS], in data set [1], the “% Equilibrium mixture of isomers” value was determined as 98.39% and the “% Impurities” value is recorded as 1.61%.

Regarding `CCCc1ncc(C[n+]2ccccc2C)c(N)n1` [Amprolium, amprolium], the “21-day Average Daily Weight Gain” value in data set [2] (10 mg/kg oral drench from day 10 post-challenge, re-administered on each of the following four days) is 0.60 kg. Further, the “mean daily hydration scores compared to the saline treated calves” value in data set [2] (amprolium 10 mg/kg oral) is recorded as “statistically significant reductions (p<0.05)”. In data set [2] (setting [4]), the “mean daily attitude scores compared to the saline controls” value is recorded as “significant reductions (p<0.05)” and the “mean daily fecal consistency scores compared to the saline treated calves” value is “statistically significant reductions (p<0.05)”. In data set [2] (days 19-28 post-challenge), the “oocyst shedding compared to the saline controls” value was “decreased”.

In the case of `CN1C[C@@H]2C[C@H]1CN2c1cc2c(cc1F)c(=O)c(C(=O)O)cn2C1CC1` [Danofloxacin, danofloxacin], the “Mean Lung Lesion Score (%)” value in the data set on Pasteurella multocida (re-administered on each of the following two days) is recorded as 1.9%. Besides, the “mean daily illness scores” value with Pasteurella multocida (three doses, saline about 3) is on record as “about 2”. Further, in data set [3] (pigs exposed to A. pleuropneumoniae seeder pigs, 1.25 mg/kg intramuscular, re-administered on each of the following two days), the “Mean Lung-lesion Score” value is on record as 4.8%. In data set [3] (pigs, danofloxacin 1.25 mg/kg x3, pharmaceutical composition 2.5, 5, 10 mg/kg), the “mean daily illness scores in the saline-treated pigs compared to treated animals” value is listed as “Statistically significant (p<0.05) elevations”.
